Patent US20250296938A1, “Compounds that Interact with the Ras Superfamily for the Treatment of Cancers, Inflammatory Diseases, Rasopathies, and Fibrotic Disease” (SHY Therapeutics, LLC, priority 2018, published 2025)
Read-outs that look alike come from different tables or passages of the source.

Tests used:
[1] = tested on: MIA PaCa-2 pancreatic cancer cell line; experiment: Cell proliferation assay (DAPI); type: cell-based; conditions: Homo sapiens; for inhibition at 10 µM: read-out: % Inhibition of cell proliferation, MIA PaCa-2 % inh
Experimental: Cell lines: Human NSCLC cells NCI-H1975 and NCI-H1299, and tumor-derived pancreatic cancer cell lines Panc-1, MIA-PACA2, and BxPC3, were all purchased from American Type Culture Collection and grown in complete RPMI medium (BxPC3, NCI-H1975 and NCI-H1299) or DMEM-High Glucose (Panc1 and MIA-PaCa-2), supplemented with penicillin (100 U/mL), streptomycin (100 μg/mL), and 10% heat-inactivated FBS at 37° C. in a humidified incubator with 5% CO2.
Method: Cells were plated at 2000 to 5000 cells/well density in 96-wells plate and cultured ON. Small molecules to be tested were added to the cells in the final concentration of 10 µM in the presence of 0.3% DMSO and 10% FBS, and incubated for 2-4 days at 37° C. in a humidified incubator with 5% CO2. For IC50 value determination, serial dilutions of compounds were added to cells under the same conditions.
Assay: At the end of the incubation period, cell cultures were fixed with a 50-50 mixture (v/v) acetone-methanol for 10 minutes at −20° C., followed by rehydration in PBS for 10 minutes at room temperature. DNA total content was determined by staining cells with DAPI (1 ug/ml) in PBS for 10 minutes at room temperature, followed by 3 washes with PBS. After staining, DAPI fluorescence was recorded (358 nm excitation/461 nm emission) with the 96-well plate reader Molecular Devices Spectramax M3; degree of small molecule-dependent proliferation inhibition was calculated from raw data.

Rac-1 = Rac-1 (Homo sapiens, UniProt P63000); experiment: Ras GTP binding domain inhibition assay (Cy3-GTP/Cy5-GTP competition)
Outline: (§1)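 First, His-tagged protein is coated on nickel wells overnight at 4 °C. Next, compound (20 μM single point or serial dilution) is added for 3 h at room temperature, with or without Sos exchange factor in the last hour. Finally, 100 nM labelled GTP binds for 45 min and retained signal is measured.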

KRas G12D mutant = target: T1, KRas G12D mutant (Homo sapiens, UniProt P01116, G12D); experiment: as above; conditions: at 20 μM
T1 construct: fused on or other part: His tag, used for capture on nickel-coated plates
Outline: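 Compounds tested at 20 μM or in serial dilution for IC50 against nickel-captured His-tagged GTPase, 3 hours at room temperature, with or without His-Sos GEF added for last hour. Fluorescent GTP then added at 100 nM for 45 minutes; wells washed, bound label measured by fluorescence.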

Rho-A = Rho-A (Homo sapiens, UniProt P61586); experiment: as above
Outline: as §1

[2] = with SOS, read-out: Rac-1 + SOS: % inh.
[3] = without SOS, read-out: Rac-1: % inh.
[4] = with SOS, read-out: KRas G12D mutant + SOS: % inh.
[5] = without SOS, read-out: KRas G12D mutant: % inh.
[6] = with SOS, read-out: Rho-A + SOS: % inh.
[7] = without SOS, read-out: Rho-A: % inh.

Compound	inhibition at 10 µM ([1]; 2-4 days, MIA PaCa-2)	inhibition at 20 µM (Rac-1; [2])	inhibition at 20 µM (Rac-1; [3])	inhibition at 20 µM (KRas G12D mutant; [4])	inhibition at 20 µM (KRas G12D mutant; [5])	inhibition at 20 µM (Rho-A; [6])	inhibition at 20 µM (Rho-A; [7])	also measured
CN(Cc1ccccc1)Cc1nc(-c2ccccn2)nc(O)c1O	0%							
Cn1ccc(-c2sc3nc(-c4nccn4C)nc(N[C@@H]4CC[C@H](O)C4)c3c2-c2ccccc2)n1 (racemic) [drawing 644]								inhibition at 10 µM ([1]; MIA PaCa-2 (Table 5A)): 26 to 50%; IC50 ([1]; MIA PaCa-2 (Table 5A)): > 1000 nM
COc1cccc(-c2csc3c(O)nc(-c4nccn4C)nc23)c1Cl [drawing 528]	76 to 100%							IC50 ([1]; MIA PaCa-2): > 1000 nM
Cn1ccnc1-c1nc(O)c2scc(-c3ccccn3)c2n1 [drawing 529]	76 to 100%							
Oc1nc(-c2ncc3n2CCCC3)nc2c(-c3ccccn3)csc12 [drawing 530]	76 to 100%							
Oc1nc(-c2cn3ccccc3n2)nc2c(-c3ccccn3)csc12 [drawing 531]	76 to 100%							
COCCn1ccnc1-c1nc(O)c2scc(-c3ccccn3)c2n1 [drawing 532]	76 to 100%							
Cc1cc(Cn2ccnc2-c2nc(O)c3scc(-c4ccccn4)c3n2)on1 [drawing 533]	76 to 100%							
Oc1nc(-c2nccn2Cc2ccccn2)nc2c(-c3ccccn3)csc12 [drawing 534]	76 to 100%							
COc1cccc(Cn2ccnc2-c2nc(O)c3scc(-c4ccccn4)c3n2)c1 [drawing 535]	76 to 100%							
Cc1cnc(-c2nc(O)c3scc(-c4ccccn4)c3n2)n1C [drawing 536]	76 to 100%							
Cc1cn(C)c(-c2nc(O)c3scc(-c4ccccn4)c3n2)n1 [drawing 537]	76 to 100%							
Oc1nc(-c2ncc3ccccn23)nc2c(-c3ccccn3)csc12 [drawing 538]	76 to 100%							
Oc1nc(-c2cn3cccnc3n2)nc2c(-c3ccccn3)csc12 [drawing 539]	0%							
Oc1nc(-c2cn(-c3ccccc3)cn2)nc2c(-c3ccccn3)csc12 [drawing 540]	76 to 100%							
COc1ccc(Cn2cnc(-c3nc(O)c4scc(-c5ccccn5)c4n3)c2)cc1 [drawing 541]	76 to 100%							
COCCCN(C)c1nc(-c2nccn2C)nc2sc(-c3ccn(C)n3)c(-c3ccccc3)c12 [drawing 543]	76 to 100%							IC50 ([1]; MIA PaCa-2): > 1000 nM
Cn1ccc(-c2sc3nc(-c4nccn4C)nc(NC4CCOCC4)c3c2-c2ccccc2)n1 [drawing 546]	1 to 25%							IC50 ([1]; MIA PaCa-2): > 1000 nM
Cn1ccc(-c2sc3nc(-c4nccn4C)nc(N4CCC5(CCOC5)C4)c3c2-c2ccccc2)n1 (stereo not shown) [drawing 551]	26 to 50%							IC50 ([1]; MIA PaCa-2): > 1000 nM

Compound	inhibition at 10 µM ([1]; 2-4 days, MIA PaCa-2)	inhibition at 20 µM (Rac-1; [2])	inhibition at 20 µM (Rac-1; [3])	inhibition at 20 µM (KRas G12D mutant; [4])	inhibition at 20 µM (KRas G12D mutant; [5])	inhibition at 20 µM (Rho-A; [6])	inhibition at 20 µM (Rho-A; [7])	also measured
COC1CCN(c2nc(-c3nccn3C)nc3sc(-c4ccn(C)n4)c(-c4ccccc4)c23)CC1 [drawing 552]	76 to 100%							IC50 ([1]; MIA PaCa-2): > 1000 nM
COCCCNc1nc(-c2nccn2C)nc2sc(-c3ccn(C)n3)c(-c3ccc(OC)cc3)c12 [drawing 553]	76 to 100%							IC50 ([1]; MIA PaCa-2): > 1000 nM
CO[C@H]1C[C@@H](Nc2nc(-c3ncc[nH]3)nc3sc(-c4ccn(C)n4)c(-c4ccccc4)c23)C1 [drawing 1045]		26 to 50%	26 to 50%	26 to 50%	26 to 50%	26 to 50%	26 to 50%	
CO[C@H]1CC[C@@H](Nc2nc(-c3ncc[nH]3)nc3sc(-c4ccn(C)n4)c(-c4ccccc4)c23)C1 [drawing 1046]		51 to 75%	51 to 75%	51 to 75%	26 to 50%	26 to 50%	51 to 75%	
CO[C@H]1CC[C@@H](Nc2nc(-c3nccn3C)nc3sc(-c4ccn(C(C)C)n4)c(-c4ccccc4)c23)C1 [drawing 1047]		51 to 75%	51 to 75%	51 to 75%	51 to 75%	76 to 100%	76 to 100%	
COc1nc(-c2ccccn2)nc2c(-c3ccccn3)csc12 [drawing 1048]		26 to 50%	26 to 50%	1 to 25%	26 to 50%	26 to 50%	26 to 50%	
CO[C@H]1C[C@@H](Nc2nc(-c3nccn3C)nc3sc(-c4ccn(C)n4)c(C)c23)C1 [drawing 1049]		51 to 75%	51 to 75%	51 to 75%	51 to 75%	76 to 100%	76 to 100%	
CO[C@H]1CC[C@@H](Nc2nc(-c3nccn3C)nc3sc(-c4ccn(C)n4)c(C)c23)C1 [drawing 1050]		76 to 100%	76 to 100%	51 to 75%	26 to 50%	76 to 100%	76 to 100%	
Cc1c(-c2ccn(C)n2)sc2nc(-c3nccn3C)nc(NCCCS(C)(=O)=O)c12 [drawing 1051]		51 to 75%	76 to 100%	76 to 100%	76 to 100%	51 to 75%	51 to 75%	
Cc1c(-c2ccn(C)n2)sc2nc(-c3nccn3C)nc(NCCCC(=O)N(C)C)c12 [drawing 1052]		76 to 100%	76 to 100%	76 to 100%	51 to 75%	76 to 100%	76 to 100%	
Cc1c(-c2ccn(C)n2)sc2nc(-c3nccn3C)nc(NCCOC(=O)N(C)C)c12 [drawing 1053]		51 to 75%	76 to 100%	76 to 100%	76 to 100%	51 to 75%	76 to 100%	
CO[C@H]1C[C@@H](Nc2nc(-c3nccn3C)nc3sc(C(=O)NC(C)C)c(-c4ccccc4)c23)C1 [drawing 1055]		76 to 100%	76 to 100%	51 to 75%	51 to 75%	51 to 75%	51 to 75%	
COCCNC(=O)c1sc2nc(-c3nccn3C)nc(N[C@H]3C[C@@H](OC)C3)c2c1-c1ccccc1 [drawing 1056]		76 to 100%	51 to 75%	51 to 75%	51 to 75%	51 to 75%	51 to 75%	
CO[C@H]1C[C@@H](Nc2nc(-c3nccn3C)nc3sc(C(=O)N4CCOCC4)c(-c4ccccc4)c23)C1 [drawing 1057]		76 to 100%	51 to 75%	51 to 75%	51 to 75%	51 to 75%	51 to 75%	
COC1CCN(C(=O)c2sc3nc(-c4nccn4C)nc(N[C@H]4C[C@@H](OC)C4)c3c2-c2ccccc2)C1 (stereo partly shown) [drawing 1058]		51 to 75%	76 to 100%	51 to 75%	51 to 75%	76 to 100%	26 to 50%	
CO[C@H]1CC[C@@H](Nc2nc(-c3nccn3C)nc3sc(C(=O)NC(C)C)c(-c4ccccc4)c23)C1 [drawing 1059]		76 to 100%	76 to 100%	76 to 100%	76 to 100%	76 to 100%	76 to 100%	
COCCNC(=O)c1sc2nc(-c3nccn3C)nc(N[C@@H]3CC[C@H](OC)C3)c2c1-c1ccccc1 [drawing 1060]		76 to 100%	76 to 100%	76 to 100%	76 to 100%	76 to 100%	76 to 100%	
CO[C@H]1CC[C@@H](Nc2nc(-c3nccn3C)nc3sc(C(=O)N4CCCC4)c(-c4ccccc4)c23)C1 [drawing 1061]		76 to 100%	76 to 100%	51 to 75%	51 to 75%	76 to 100%	76 to 100%	
CO[C@H]1CC[C@@H](Nc2nc(-c3nccn3C)nc3sc(C(=O)N4CCOCC4)c(-c4ccccc4)c23)C1 [drawing 1062]		76 to 100%	76 to 100%	51 to 75%	76 to 100%	76 to 100%	76 to 100%	
